Data on one molecule can be found in patent publication US6265577A, “Pyrazolopyridylpyridazinone derivatives and process for the preparation thereof” (Kyorin Pharmaceuticals Co., Ltd., priority 1996, dated 2001).

Format in all cases: biochemical
Assay [1] has as its target T1, phosphodiesterase II from respiratory tract (Cavia porcellus, UniProt A0A286XUV5).
T1 construct: fractions were extracted from respiratory tract and heart of guinea pig; from tissue; host or cells: guinea pig respiratory tract
T1 sequence (A0A286XUV5 22-936): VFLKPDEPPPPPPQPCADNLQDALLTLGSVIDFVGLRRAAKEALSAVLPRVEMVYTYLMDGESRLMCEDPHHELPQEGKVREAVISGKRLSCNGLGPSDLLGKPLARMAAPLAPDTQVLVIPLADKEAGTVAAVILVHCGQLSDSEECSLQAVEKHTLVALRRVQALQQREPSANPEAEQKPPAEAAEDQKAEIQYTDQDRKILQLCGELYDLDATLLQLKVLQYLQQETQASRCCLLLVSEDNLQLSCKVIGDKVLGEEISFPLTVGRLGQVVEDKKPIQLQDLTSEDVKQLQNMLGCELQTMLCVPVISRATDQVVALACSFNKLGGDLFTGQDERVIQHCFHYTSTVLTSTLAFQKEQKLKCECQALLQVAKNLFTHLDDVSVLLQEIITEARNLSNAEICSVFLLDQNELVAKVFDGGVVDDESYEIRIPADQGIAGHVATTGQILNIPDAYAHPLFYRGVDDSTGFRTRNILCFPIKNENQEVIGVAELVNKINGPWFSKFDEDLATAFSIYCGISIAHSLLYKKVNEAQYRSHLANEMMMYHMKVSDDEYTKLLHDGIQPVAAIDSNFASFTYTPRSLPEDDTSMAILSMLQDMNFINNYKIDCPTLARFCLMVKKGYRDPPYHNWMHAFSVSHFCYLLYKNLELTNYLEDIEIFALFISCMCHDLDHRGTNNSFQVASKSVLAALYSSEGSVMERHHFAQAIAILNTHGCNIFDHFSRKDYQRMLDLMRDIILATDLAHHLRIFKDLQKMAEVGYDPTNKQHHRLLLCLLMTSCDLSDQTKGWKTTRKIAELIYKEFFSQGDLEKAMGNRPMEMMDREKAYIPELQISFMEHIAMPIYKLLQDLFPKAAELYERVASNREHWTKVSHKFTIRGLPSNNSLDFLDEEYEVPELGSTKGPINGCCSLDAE
The assay can be described thus: Measurement of phosphodiesterase-inhibiting activity, respiratory tract, II. To be noted: guinea pig respiratory tract; 1 μM cAMP or cGMP substrate, 60 minutes at 30° C., EIA. As for the experimental part:
(§1) Measurement of phosphodiesterase-inhibiting activity
(§2) Phosphodiestorase-containing fractions were extracted from respiratory tract and heart of guinea pig according to the method of Nicholson et al (Br. J. Pharmacol., 97, 889-897 (1989)), and used as enzyme solutions. The measurement of phosphodiesterase-inhibiting activity was performed by quantitatively determining (Linden et al, J. Immunol. Methods., 151, 209-216 (1992)) the cyclic AMP (cAMP) or cyclic GMP (cGMP) that remains as a result of enzymic reaction (Thompson et al, Biochemistry, 10, 311-316 (1971)) through enzyme immunoassay (EIA).
(§3) This was performed according to the method of Thompson et al. The enzyme solution was placed in a test tube, and 1 μM of cAMP or cGMP was added as a substrate. After reacting for 60 minutes at 30° C., the test tube was dipped for 2 minutes into boiling bath to inactivate phosphodiesterase, thus stopping the reaction. The testing compound was added to the test tube simultaneously with substrate.
(§4) 2) Quantitative determination through EIA […]

Assay [2] addresses T2, phosphodiesterase III from respiratory tract (Cavia porcellus, UniProt H0VIU9).
T2 construct: fractions were extracted from respiratory tract and heart of guinea pig; from tissue; host or cells: guinea pig respiratory tract
T2 sequence (H0VIU9 1-1132): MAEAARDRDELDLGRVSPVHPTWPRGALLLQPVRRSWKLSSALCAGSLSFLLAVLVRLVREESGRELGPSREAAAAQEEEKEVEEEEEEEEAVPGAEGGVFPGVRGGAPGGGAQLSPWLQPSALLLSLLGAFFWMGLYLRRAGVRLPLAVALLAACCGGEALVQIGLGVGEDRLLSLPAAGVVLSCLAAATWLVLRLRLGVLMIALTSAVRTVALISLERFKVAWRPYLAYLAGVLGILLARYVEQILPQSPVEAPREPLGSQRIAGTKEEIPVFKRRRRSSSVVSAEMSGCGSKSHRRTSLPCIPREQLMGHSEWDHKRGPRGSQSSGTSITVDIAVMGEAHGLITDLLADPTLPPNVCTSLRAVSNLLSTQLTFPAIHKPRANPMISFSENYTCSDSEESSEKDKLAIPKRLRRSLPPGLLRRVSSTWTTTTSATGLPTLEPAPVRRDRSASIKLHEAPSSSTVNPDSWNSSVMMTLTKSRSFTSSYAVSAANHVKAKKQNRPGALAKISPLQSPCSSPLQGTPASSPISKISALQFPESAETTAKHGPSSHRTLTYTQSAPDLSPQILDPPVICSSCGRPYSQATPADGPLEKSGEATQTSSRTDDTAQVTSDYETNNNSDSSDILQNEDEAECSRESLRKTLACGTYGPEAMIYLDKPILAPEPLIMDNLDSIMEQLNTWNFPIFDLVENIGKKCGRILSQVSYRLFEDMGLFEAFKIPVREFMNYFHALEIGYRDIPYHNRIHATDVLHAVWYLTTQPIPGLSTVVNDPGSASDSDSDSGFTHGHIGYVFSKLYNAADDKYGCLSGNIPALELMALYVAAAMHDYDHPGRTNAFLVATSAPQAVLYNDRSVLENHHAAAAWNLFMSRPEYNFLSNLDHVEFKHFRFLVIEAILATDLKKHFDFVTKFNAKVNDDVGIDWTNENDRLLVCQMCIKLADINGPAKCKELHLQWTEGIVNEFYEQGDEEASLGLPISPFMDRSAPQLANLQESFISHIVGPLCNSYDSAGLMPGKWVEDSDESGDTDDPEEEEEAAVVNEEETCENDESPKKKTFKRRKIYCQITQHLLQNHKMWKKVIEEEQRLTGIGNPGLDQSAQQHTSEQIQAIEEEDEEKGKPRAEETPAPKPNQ
Nature of the assay: Measurement of phosphodiesterase-inhibiting activity, respiratory tract, III. As to conditions: guinea pig respiratory tract; 1 μM cAMP or cGMP substrate, 60 minutes at 30° C., EIA. Here is the method:
as §1, §2, §3, §4

Assay [3] concerns the target phosphodiesterase IV from respiratory tract. The assay can be described thus: Measurement of phosphodiesterase-inhibiting activity, respiratory tract, IV. As to conditions: guinea pig respiratory tract; 1 μM cAMP or cGMP substrate, 60 minutes at 30° C., EIA. As for the experimental part:
as §1, §2, §3, §4

Assay [4] has as its target T3, phosphodiesterase V from respiratory tract (Cavia porcellus, UniProt H0VD23).
T3 construct: fractions were extracted from respiratory tract and heart of guinea pig; from tissue; host or cells: guinea pig respiratory tract
The assay can be described thus: Measurement of phosphodiesterase-inhibiting activity, respiratory tract, V. As to conditions: guinea pig respiratory tract; 1 μM cAMP or cGMP substrate, 60 minutes at 30° C., EIA. Here is the method: as §1, §2, §3, §4

Assay [5] addresses phosphodiesterase I from heart. Nature of the assay: Measurement of phosphodiesterase-inhibiting activity, heart, I. As to conditions: guinea pig heart; 1 μM cAMP or cGMP substrate, 60 minutes at 30° C., EIA. Here is the method: as §1, §2, §3, §4
For assay [6], the target named is T4, phosphodiesterase II from heart (Cavia porcellus, UniProt A0A286XUV5).
T4 construct: fractions were extracted from respiratory tract and heart of guinea pig; from tissue; host or cells: guinea pig heart
T4 sequence (A0A286XUV5 22-936): T1 sequence (A0A286XUV5 22-936)
The assay can be described thus: Measurement of phosphodiesterase-inhibiting activity, heart, II. To be noted: guinea pig heart; 1 μM cAMP or cGMP substrate, 60 minutes at 30° C., EIA. As for the experimental part:
as §1, §2, §3, §4

Assay [7] addresses T5, phosphodiesterase III from heart (Cavia porcellus, UniProt H0VIU9).
T5 construct: fractions were extracted from respiratory tract and heart of guinea pig; from tissue; host or cells: guinea pig heart
T5 sequence (H0VIU9 1-1132): T2 sequence (H0VIU9 1-1132)
Nature of the assay: Measurement of phosphodiesterase-inhibiting activity, heart, III. As to conditions: guinea pig heart; 1 μM cAMP or cGMP substrate, 60 minutes at 30° C., EIA. Here is the method:
as §1, §2, §3, §4

The structures appear in SMILES notation. pIC50: −log10 of the molar value. Values after ≈ are worked out from the molar mass of the structure shown.

On to `CC1CC(=O)NN=C1c1c(C(C)C)nn2ccccc12` (stereo not shown) [Example 36], for which the negative-log IC50 (pIC50) (in general, −log10 of the IC50, conventionally taken in molar units) is below 3.95 in assay [1]; 4.83 in assay [2]; 6.43 in assay [4]; below 3.95 in assay [6]; 4.73 in assay [7]. Moreover, in assay [3], the “IC50 Respiratory tract IV” value stood at 5 µg/mL (≈ 18.5 µM). Moreover, the “IC50 Heart I” value in assay [5] was above 30 µg/mL.
